According to the Bradley open melting point set (2014):

melting point	SMILES
125 °C	O=C(O)c1ccccc1Nc1cccc(C(F)(F)F)c1 [Flufenamic Acid]
-40 °C	Fc1ccccc1 [Fluorobenzene]
281 °C	O=c1[nH]cc(F)c(=O)[nH]1 [Fluorouracil]
114 °C	CC(C(=O)O)c1ccc(-c2ccccc2)c(F)c1 (centres undefined) [Flurbiprofen]
272 °C	CCC(=O)O[C@]1(C(=O)SCF)[C@H](C)C[C@H]2[C@@H]3C[C@H](F)C4=CC(=O)C=C[C@]4(C)[C@@]3(F)[C@@H](O)C[C@@]21C [Fluticasone Propionate]
250 °C	Nc1nc(=O)c2nc(CNc3ccc(C(=O)N[C@@H](CCC(=O)O)C(=O)O)cc3)cnc2[nH]1 [Folic Acid]
250 °C	Nc1nc(=O)c2ncn(COC(CO)CO)c2[nH]1 [Ganciclovir]
194 °C	N[C@@H](CCC(=O)N[C@@H](CS)C(=O)NCC(=O)O)C(=O)O [Glutathione]
240 °C	NCC(=O)O [Glycine]
220 °C	COc1cc(OC)c2c(c1Cl)O[C@]1(C2=O)C(OC)CC(=O)C[C@H]1C (some centres undefined) [Griseofulvin]
220 °C	COC1=CC(=O)C[C@@H](C)[C@]12Oc1c(Cl)c(OC)cc(OC)c1C2=O [Griseofulvin]
148 °C	O=C(CCCN1CCC(O)(c2ccc(Cl)cc2)CC1)c1ccc(F)cc1 [Haloperidol]
-33 °C	CCCC(=O)CCC [Heptan-4-one]
125 °C	O=C(O)CCCCCCCCCCCCCCC(=O)O [Hexadecanedioic acid]
-23 °C	CCCCCCN [Hexan-1-amine]
45 °C	OCCCCCCO [Hexane-1,6-Diol]
274 °C	NS(=O)(=O)c1cc2c(cc1Cl)NCNS2(=O)=O [Hydrochlorothiazide]
96 °C	CCOC(=O)Cc1c(C)n(C(=O)c2ccc(Cl)cc2)c2ccc(OC)cc12 [Indomethacin ethyl ester]
103 °C	CC(COc1ccccc1)NC(C)C(O)c1ccc(O)cc1 (centres undefined) [Isolait]
93 °C	CC(C(=O)O)c1cccc(C(=O)c2ccccc2)c1 (centres undefined) [Ketoprofen]
235 °C	NC(=O)C[C@H](N)C(=O)O [L-Asparagine]

melting point	SMILES
230 °C	N[C@@H](CC(=O)O)C(=O)O [L-Aspartic Acid]
196 °C	C[N+](C)(C)C[C@H](O)CC(=O)[O-] [L-Carnitine]
214 °C	NC(=O)NCCC[C@H](N)C(=O)O [L-Citrulline]
150 °C	O=C[C@@H](O)[C@H](O)[C@@H](O)[C@@H](O)CO [L-Glucose]
224 °C	N[C@@H](CCC(=O)O)C(=O)O [L-Glutamic Acid]
228 °C	O=C(O)[C@@H]1CCCN1 [L-Proline]
222 °C	N[C@@H](CO)C(=O)O [L-Serine]
256 °C	C[C@@H](O)[C@H](N)C(=O)O [L-Threonine]
101 °C	C(O)[C@H](O)[C@@H](O)[C@@H](O)CO [L-arabitol]
44 °C	CC(C)[C@@H]1CC[C@@H](C)C[C@H]1O [L-menthol]
32 °C	CSCC[C@H](N)CO [L-methioninol]
33 °C	CC(=O)CCC(=O)O [Laevulinic Acid]
99 °C	CCCCCCCCCCCC(N)=O [Lauramide]
45 °C	CCCCCCCCCCCC(=O)O [Lauric acid]
184 °C	N#Cc1ccc(C(c2ccc(C#N)cc2)n2cncn2)cc1 [Letrozole]
127 °C	CC(Oc1c(Cl)cccc1Cl)C1=NCCN1 (centres undefined) [Lofexidine]
175 °C	CC[C@H](C)C(=O)O[C@H]1C[C@@H](C)C=C2C=C[C@H](C)[C@H](CC[C@@H]3C[C@@H](O)CC(=O)O3)[C@H]21 [Lovastatin]
11.8 °C	Cc1cccc(O)c1 [M-Cresol]
100 °C	CCc1c(C)[nH]c2ccc(N(C)C)cc12 [Medmain]
102 °C	CC1=CC(=O)c2ccccc2C1=O [Menadione]
135 °C	CCC1(c2ccccc2)NC(=O)N(C)C1=O (centres undefined) [Mephenytoin]

melting point	SMILES
224 °C	CN(C)C(=N)NC(=N)N [Metformin]
-98 °C	CO [Methanol]
-35 °C	COC(F)(F)C(Cl)Cl [Methoxyflurane]
127 °C	COC(=O)c1ccc(O)cc1 [Methyl 4-hydroxybenzoate]
249 °C	COC(=O)[C@H](Cc1ccccc1)NC(=O)[C@@H](N)CC(=O)O [Methyl L-alpha-aspartyl-L-phenylalaninate]
134 °C	COC(=O)[C@@H](N)Cc1ccc(O)cc1 [Methyl L-tyrosinate]
-12 °C	COC(=O)c1ccccc1 [Methyl benzoate]
156 °C	CCOC(=O)Nc1ccc2c(c1)N(C(=O)CCN1CCOCC1)c1ccccc1S2 [Moricizine]
55.1 °C	CCCCCCCCCCCCCC(=O)O [Myristic acid]
173 °C	O=C(NNc1ccccc1)NNc1ccccc1 [N'',N'''-Diphenylcarbonohydrazide]
12 °C	NCCNCCNCCN [N,N'-Bis(2-aminoethyl)ethane-1,2-diamine]
219 °C	CC(=O)Nc1ccc(/C=C/c2ccc(NC(C)=O)cc2)cc1 [N,N'-[(E)-ethene-1,2-diyldibenzene-4,1-diyl]diacetamide]
66 °C	CCCCNC(=S)NCCCC [N,N'-di-n-butylthiourea]
180 °C	CCNC(=O)C(=O)NCC [N,N'-diethyloxamide]
102 °C	CNC(=O)NC [N,N'-dimethylurea]
-70 °C	CCCCN(CCCC)CCCC [N,N-Dibutylbutan-1-amine]
-93.5 °C	CCCN(CCC)CCC [N,N-Dipropylpropan-1-amine]
-70 °C	CCCCN(CCCC)CCCN [N,N-di-n-butyl-1,3-propylenediamine]
70 °C	c1ccc(CN(Cc2ccccc2)c2ccccc2)cc1 [N,N-dibenzylaniline]
-25 °C	CCN(O)CC [N,N-diethylhydroxylamine]
48 °C	CN(C)S(C)(=O)=O [N,N-dimethylmethanesulfonamide]

melting point	SMILES
204 °C	CC(=O)Nc1nc(O)c2ncn(COCCOC(C)=O)c2n1 [N,O-Diacetylacyclovir]
-35 °C	NCCNCCN [N-(2-Aminoethyl)ethane-1,2-diamine]
335 °C	CC(=O)Nc1ccc2c(c1)NC(=O)C2 [N-(2-oxo-2,3-dihydro-1H-indol-6-yl)acetamide]
146 °C	Cc1ccc(N2C(=O)C=CC2=O)cc1Cl [N-(3-chloro-4-methylphenyl)maleimide]
170 °C	CC(=O)Nc1ccc(O)cc1 [N-(4-Hydroxyphenyl)acetamide]
79 °C	O=C1c2ccccc2C(=O)N1CCCCBr [N-(4-bromobutyl)phthalimide]
166 °C	CC(=O)Nc1cccc2c(N)cccc12 [N-(5-aminonaphthalen-1-yl)acetamide]
120 °C	Cc1ccc(cc1NC(=O)/C=CC(=O)O)Cl [N-(5-chloro-2-methylphenyl)maleamic acid]
127 °C	NCCNc1ccc([N+](=O)[O-])cn1 [N-(5-nitro-2-pyridyl)-1,2-ethanediamine]
57 °C	O=C1c2ccccc2C(=O)N1CCCCCCBr [N-(6-bromohexyl)phthalimide]
136 °C	O=CNC(c1ccccc1)c1ccccc1 [N-(Diphenylmethyl)formamide]
147 °C	O=C1c2ccccc2C(=O)N1CBr [N-(bromomethyl)phthalimide]
81 °C	CCOC(=O)N1C(=O)c2ccccc2C1=O [N-(ethoxycarbonyl)phthalimide]
-60 °C	CCCCNCCCC [N-Butylbutan-1-amine]
207 °C	NC(=O)N[C@@H]1O[C@H](CO)[C@@H](O)[C@H](O)[C@H]1O [N-Carbamoyl-beta-D-glucopyranosylamine]
77 °C	O=C(O)[C@@H]1CCCN1C(=O)OCc1ccccc1 [N-Cbz-L-proline]
90 °C	ON=C1/CCCCC1 [N-Hydroxycyclohexanimine]
115 °C	CC(=O)Nc1ccccc1 [N-Phenylacetamide]

SMILES	melting point
ClC1=C(Cl)C2(Cl)C3C4OC4C(Cl)C3C1(Cl)C2(Cl)Cl (centres undefined) [Heptachlor epoxide]	160 °C
Brc1c(Br)c(Br)c(Br)c(Br)c1Br [Hexabromobenzene]	306 °C
II [Iodine]	114 °C
CN=C=O [Isocyanatomethane]	-80 °C
CN=C=S [Isothiocyanatomethane]	35 °C
C=CCN1CC[C@]23CCCC[C@H]2[C@H]1Cc1ccc(O)cc13 [Levallorphan]	181 °C
ClC1C(Cl)C(Cl)C(Cl)C(Cl)C1Cl (centres undefined) [Lindane]	114 °C
O=C1Nc2ccc(Cl)cc2C(c2ccccc2Cl)=NC1O (centres undefined) [Lorazepam]	166 °C
CCOC(=O)C1(c2ccccc2)CCN(C)CC1 [Meperidine]	188 °C
Cc1ccccc1-n1c(C)nc2ccccc2c1=O [Methaqualone]	113 °C
CCC1(CC)C(=O)NC(=O)N(C)C1=O [Metharbital]	150 °C
COC(=O)c1ccccc1N [Methyl 2-aminobenzoate]	24 °C
C=CC(=O)OC [Methyl acrylate]	-75 °C
CCC1(c2ccccc2)C(=O)NC(=O)N(C)C1=O (centres undefined) [Methylphenobarbital]	176 °C
COc1ccc(NC(=O)N(C)C)cc1Cl [Metoxuron]	127 °C
NC(=O)CS(=O)C(c1ccccc1)c1ccccc1 (centres undefined) [Modafinil]	165 °C
C(=NC1CCCCC1)=NC1CCCCC1 [N,N'-dicyclohexylcarbodiimide]	35 °C
CN(C)c1ccc(N=O)cc1 [N,N-Dimethyl-4-nitrosoaniline]	86 °C
CN(C)c1ccc(N=O)cc1 [N,N-dimethyl-4-nitrosoaniline]	86 °C
CN(C)c1ccc(N)cc1 [N,N-dimethyl-p-phenylenediamine]	36 °C
CN(C)c1ccccc1 [N,N-dimethylaniline]	2 °C
CCCCc1ccccc1 [N-Butylbenzene]	-87.9 °C
C1CCC(NC2CCCCC2)CC1 [N-Cyclohexylcyclohexanamine]	-1 °C
